Patent CN102743371A, “一种治疗视网膜新生血管性疾病的药物” (SPECIALTY OF OPHTHALMOLOGY RESEARCH INSTITUTE SHANDONG PROV, priority 2012, dated 2012)

Columns and labels:
VEGF-A = assay: Western blot of VEGF-A protein in retina of OIR mice (PBS control group and FUT-175 treated group); type: in vivo, mouse; conditions: retina total protein
[1] = system: retinal neovascularization (视网膜新生血管); assay: Oxygen-induced retinopathy (OIR) mouse model; retinal flat mount with FITC-conjugated isolectin-B4, fluorescence microscopy of retinal neovascularization at P17; type: in vivo

N=C(N)c1ccc2cc(OC(=O)c3ccc(N=C(N)N)cc3)ccc2c1 [甲磺酸萘莫司他]
VEGF-A expression change (VEGF-A; C3aR and C5aR knockout): 无检测到VEGF-A的表达变化
VEGF-A protein expression (VEGF-A; C57BL/6J): 可调节VEGF-A的蛋白表达
change in retinal neovascularization growth after injection ([1]; C3aR-/- and C5aR-/- mice, same OIR treatment): 变化并不明显
fundus vessel growth ([1]; C57BL/6J mice, OIR (75% oxygen from P7 for 5 d), 50 mg/kg i.p. daily from P12, evaluated at P17): 血管生长趋于正常
inhibition of RNV growth ([1]; C57BL/6J mice, OIR (75% oxygen from P7 for 5 d), 50 mg/kg i.p. daily from P12, evaluated at P17, fluorescence microscopy): 能够明显抑制RNV的生长
